Results: patent publication US4461775A, “Hydroxythioether fatty acid derivatives” (McNeilab, Inc., priority 1982, dated 1984)

What was measured:
[1] = test system: guinea pig ileum (SRS-A induced contraction); assay: guinea pig ileum: prevention of the contraction of guinea pig ileum caused by SRS-A; format: cell-based; conditions: Cavia porcellus; SRS-A induced contraction of isolated guinea pig ileum; atropine and chlorpheniramine (1×10^-5 M) present; read-out: G.P. Ileum IC50
Experimental: The tissue is exposed to 5 mg/ml histamine at 1-3 minute intervals until a reproducible response is obtained. Atropine (1×10^-5 M) and chlorpheniramine (1×10^-5 M) are added followed by 1-2 biological units of SRS-A. After washing the tissue, the response to BaCl2 (1×10^-3 M) was also noted.

[2] = test system: guinea pig parenchymal strip (immunological release of SRS-A); assay: guinea pig parenchymal strip: prevention of the contraction of guinea pig parenchymal tissue by immunological release of SRS-A; format: cell-based; conditions: Cavia porcellus; egg albumin challenge of sensitized guinea pig lung strip; chlorpheniramine (10^-4 M), indomethacin (10^-5 M), test compound 30 minutes prior
Experimental: The guinea pigs were sacrificed and lungs removed. Strips of subpleural parenchyma were prepared from the left and right diaphragmatic lobes and suspended in a tissue bath under 1 g of tension. After a one hour equilibration period, a dose response to histamine (10^-7 to 10^-4 M) induced contractions was performed to determine maximal contraction. The tissues were then washed and allowed to relax to baseline. Chlorpheniramine (10^-4 M), indomethacin (10^-5 M) and test compound were added 30 minutes prior to challenge with egg albumin. The response to antigen was measured in milligrams of tension.

| IC50 [1] | Structure (SMILES) | IC50 [2] |
| --- | --- | --- |
| 1 µM | CCCCCCCCCCC[C@H](O)[C@H](CCCCC(=O)OC)SCCC(=O)OC (relative stereo) [Example 1, Threo Methyl 7-Hydroxy-6{[2-(methoxycarbonyl)ethyl]thio}octadecanoate] | > 100 µM |
| – | CCCCCCCCCCC[C@H](O)[C@@H](CCCCC(=O)OC)SCCC(=O)OC (relative stereo) [Example 4, Erythro Methyl 7-Hydroxy-6-{[2-(methoxycarbonyl)ethyl]-thio}octadecanoate] | 10 µM |
| 1.3 µM | CCCCCCCCCCCC(O)C(CCCCC(=O)OC)SC[C@H](N)C(=O)OC (stereo partly drawn) [Example 3, Threo S-(6-Hydroxy-1-methoxycarbonyl-5-heptadecyl)-L-cysteine Methyl Ester] | > 100 µM |
| 0.24 µM | CCCCCCCCCCC[C@H](O)[C@H](CCCCC(=O)O)SCCC(=O)O (relative stereo) [Example 2, Threo 6-(2-Carboxyethyl)thio-7-hydroxyoctadecanoic Acid] | 80 µM |
